Measured values as given in patent US20190111137A1, “METHODS FOR ANTAGONISTS OF A NON-SELECTIVE CATION CHANNEL IN NEURAL CELLS” (University of Maryland, Baltimore, priority 2007, published 2019).
pEC50: −log10 of the molar value. Where “and” joins values, the source holds several entries; their conditions need not be identical. Equal entries are not always repeated. Entries after “also recorded” stand apart in the source; their conditions may differ.

Tests used:
[1] = system: rat model of contusion SCI; assay: Rat model of unilateral cervical spinal cord injury (SCI); assay type: in vivo; details: 24 h post-SCI
[2] = system: reactive astrocytes; details: cells exposed to Na azide to deplete ATP; cited from earlier work
[3] = constant infusion 75-200 ng/h; cited from earlier work
[4] = system: rodent models of ischemic stroke; details: cited from earlier work
[5] = system: rat model of contusion SCI; details: as reported (Simard et al., 2007); cited from earlier work
[6] = system: TRPM4 channel; details: read-out: glibenclamide block (EC50); cited from earlier work
[7] = system: TRPM4; assay: TRPM4 protein in bEnd.3 cells after 6-h exposure to TNFα (Western blot); assay type: cell-based, murine; details: 20 ng/ml
Procedure: TNFα causes up-regulation NCCa-ATP (putative TRPM4) channel in bEnd.3. In certain aspects of the invention, injury leads to NFκB activation, such as SCI, and can result in up-regulation of functional TRPM4 channels. Murine CNS microvascular endothelial cells (bEnd.3, ATTC, Rockville, Md.) were studied under control conditions and after 6-h exposure to the pro-inflammatory cytokine, TNFα (20 ng/ml), which activates NFκB. Cultures were immunolabeled for TRPM4 and TRPM5, the only 2 molecularly identified non-selective cation channels with exclusive monovalent conductivity. […] Immunolabeling for TRPM5 was negative. Western blots confirmed robust up-regulation of TRPM4 (3-fold increase, FIGS. 19C,19D).

Compound	TRPM4 expression in cord (immunolabeling) [1]	blebbing associated with cytotoxic edema [2]	membrane depolarization [2]	necrotic cell death [2]	predicted serum concentration [3]	reduction of mortality ([4]; massive ischemic stroke with malignant cerebral edema)	reduction of cerebral edema (excess water) ([4]; massive ischemic stroke with malignant cerebral edema, low-dose, post-ischemic)	reduction of lesion volume ([4]; stroke induced by thromboemboli with delayed spontaneous reperfusion)	neurological function [5]	progressive hemorrhagic necrosis [5]	tissue loss [5]	pEC50 [6]	up-regulation of TRPM4 (Western blots) [7]
COc1ccc(Cl)cc1C(=O)NCCc1ccc(S(=O)(=O)NC(=O)NC2CCCCC2)cc1 [glibenclamide]	significantly reduced	significantly reduces blebbing	blocks membrane depolarization	significantly reduces necrotic cell death	1-3 ng/ml and 2-6 nM	half	half	half	significantly improves neurological outcome; also recorded: improves neurological function	significantly reduces progressive hemorrhagic necrosis	significantly reduces	4.00 to 5.00	–
TNFα	–	–	–	–	–	–	–	–	–	–	–	–	3 fold
